From patent US20030124023A1, “Method of sterilizing heart valves” (priority 2001, published 2003)

What was measured:
physchem = assay: physchem
Method: A. Preparation of Stabilizer Solutions:
The 0.5 M solution was not soluble; therefore an additional 2 ml of PPG was added.
An additional 1 ml PPG was added and further water bath sonicated.
The 0.5M solution was soluble after a 20-30 minute water bath sonication.
Very soluble after 10 minute water bath sonication.

[1] = Solubility of coumaric acid in DMSO/water (50% DMSO); type: physicochemical
Method: All stabilizers were prepared so that the final concentration of DMSO was 50%. Dissolve 34.7 mg in 106 μl DMSO, pH ≈3.0 138 μl H2O was added.

[2] = test system: porcine AV heart valve cusps; assay: Example 3: HPLC analysis of frozen gamma irradiated AV heart valve cusps; settings: 30 kGy, 1.584 kGy/hr, −20° C.
Method: In this experiment, frozen porcine AV heart valves soaked in various solvents were gamma irradiated to a total dose of 30 kGy at 1.584 kGy/hr at −20° C. 5. Added 1.0 ml of the following to two of each of two tubes: dPBS, 50% DMSO and 50% DMSO with 200 mM sodium ascorbate (2M sodium ascorbate stock was diluted as follows: 400 μl (2M)+1.6 ml water+2ml 100% DMSO). 6. Incubated tubes at 4° C. with nutating for ˜46 hours. 8. All vials were frozen on dry ice. 9. Frozen samples were then irradiated at −20° C. at a rate of 1.584 kGy/hr to a total dose of 30 kGy.

[3] = test system: porcine heart valve cusps; assay: Example 2: quantification of collagen crosslinks (pyd) by HPLC after gamma irradiation
Method: In this experiment, the effects of gamma irradiation were determined on porcine heart valve cusps in the presence of 50% DMSO and, optionally, a stabilizer, and in the presence of polypropylene glycol 400 (PPG400). 1.6 ml of a solution (stabilizer mixture or PPG400) was added to each sample and then the sample was incubated at 4° C. for 2.5 days. Valves and 1 ml of the solution in which they were incubated were then transferred into 2 ml irradiation vials. Each sample was irradiated with gamma irradiation at a rate of 1.723 kGy/hr at 3.6° C. to a total dose of 25 kGy. 3. Weighed the samples, transferred them to hydrolysis vials and then added 6 N HCl at a volume of 20 mg tissue/ml HCl: 5. Samples were hydrolyzed at 110° C. for approximately 23 hours. 13. Eluted crosslinks with 5 ml 2 N HCl into a low binding tube. 50 ml 2 N HCl:8.6 ml concentrated HCl adjusted to a volume of 50 ml with Nerl H2O. 1. Prepared 100-200 μl 1× solution in 1% heptafluorobutyric acid (HFBA). 2. Injected 50 μl on C18 HPLC column equilibrated with mobile phase. 3. Spectrofluorometer was set for excitation at 295 nm and emission at 395 nm. 4. Calculated the integrated fluorescence of Internal-Pyridinoline (Int-Pyd) per 1 μl of 1× solution of Int-Pyd.

O=C(O)/C=C/c1ccc(O)cc1 [Coumaric Acid]
solubility of stabilizer stock in PPG (physchem): not 100% soluble | solubility in DMSO after addition of H2O ([1]; 34.7 mg in 106 μl DMSO, pH ≈3.0, 138 μl H2O added): precipitated out of solution | solubility in DMSO/H2O after pH adjustment ([1]; pH adjusted to 7.5 with 1 N NaOH): went back into solution

C[S+](C)[O-] [DMSO, dimethylsulfoxide]
HPLC profile, irradiated versus not irradiated ([2]; 20% DMSO): reproduced these peaks more faithfully | HPLC profile, irradiated versus not irradiated ([2]; 50% DMSO): slightly more effective | Area of Pyd Peak ([3]; 0 kGy (not irradiated)): 87880 | Area of Pyd Peak ([3]; 25 kGy, 1.723 kGy/hr, 3.6° C.): 49030 | HPLC profile, irradiated versus not irradiated ([3]; 25 kGy, 1.723 kGy/hr, 3.6° C., DMSO at 50%): less effective

Cc1c(C)c2c(c(C)c1O)CCC(C)(C(=O)O)O2 (centres unmarked) [Trolox C, 6-hydroxy-2,5,7,8-tetramethylchroma-2 carboxylic acid]
solubility of stabilizer stock in PPG (physchem): not soluble | solubility (physchem; 25 °C, organic solvent or mixture, thermodynamic from solid): ≥ 125 mM

CCCOC(=O)c1cc(O)c(O)c(O)c1 [n-Propyl Gallate]
solubility of stabilizer stock in PPG (physchem): soluble
